Measured values published in patent US10150760B2, “Compounds for use in preparing heterocyclic triazole agonists of the APJ receptor” (AMGEN INC., priority 2016, dated 2018).

Biological target: human APJ receptor (Homo sapiens (Human), UniProt P35414)
Experiment: [35S]GTPγS binding assay on membranes from CHO cells stably expressing human APJ receptor
Format: biochemical
Conditions: read-out: Activity hAPJ SPA EC50 IP
How it was run: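 Membranes from CHO cells stably expressing human APJ incubated with ligand, 0.2 nM [35S]GTPγS and WGA SPA beads in HEPES pH 7.5 with 5 mM MgCl2, 200 mM NaCl, 3 μM GDP, 90 min at RT. Nonspecific binding defined with 100 μM GTPγS; EC50 by non-linear regression.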

Sequence of human APJ receptor (P35414 whole entry): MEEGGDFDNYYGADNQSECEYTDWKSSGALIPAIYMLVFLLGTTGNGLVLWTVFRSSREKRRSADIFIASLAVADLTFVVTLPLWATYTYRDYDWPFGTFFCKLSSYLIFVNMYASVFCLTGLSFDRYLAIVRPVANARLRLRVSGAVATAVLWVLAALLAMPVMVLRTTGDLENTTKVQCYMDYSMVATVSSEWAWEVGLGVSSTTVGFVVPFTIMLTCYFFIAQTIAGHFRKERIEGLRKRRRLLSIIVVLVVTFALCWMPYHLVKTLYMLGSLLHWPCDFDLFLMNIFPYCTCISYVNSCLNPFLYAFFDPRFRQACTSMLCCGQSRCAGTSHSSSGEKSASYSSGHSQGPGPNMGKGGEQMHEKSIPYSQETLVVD

COc1cccc(OC)c1-n1c(NS(=O)(=O)[C@@H](C)[C@H](OC)c2ncc(Cl)cn2)nnc1[C@H]1CCCCO1 (single isomer, unassigned) [Example 84.0, (1R,2S)-1-(5-chloropyrimidin-2-yl)-N-(4-(2,6-dimethoxyphenyl)-5-((S)-tetrahydro-2H-pyran-2-yl)-4H-1,2,4-triazol-3-yl)-1-methoxypropane-2-sulfonamide or (1R,2S)-1-(5-chloropyrimidin-2-yl)-N-(4-(2,6-dimethoxyphenyl)-5-((R)-tetrahydro-2H-pyran-2-yl)-4H-1,2,4-triazol-3-yl)-1-methoxypropane-2-sulfonamide]
EC50: 0.8 nM

COc1cccc(OC)c1-n1c(NS(=O)(=O)[C@@H](C)[C@H](C)c2ncc(C)cn2)nnc1[C@H]1CCCCO1 (single isomer, unassigned) [Example 85.0, (2S,3R)-N-(4-(2,6-dimethoxyphenyl)-5-((S)-tetrahydro-2H-pyran-2-yl)-4H-1,2,4-triazol-3-yl)-3-(5-methylpyrimidin-2-yl)butane-2-sulfonamide or (2S,3R)-N-(4-(2,6-dimethoxyphenyl)-5-((R)-tetrahydro-2H-pyran-2-yl)-4H-1,2,4-triazol-3-yl)-3-(5-methylpyrimidin-2-yl)butane-2-sulfonamide]
EC50: 9.6 nM

COc1cccc(OC)c1-n1c(NS(=O)(=O)[C@@H](C)[C@H](C)c2ncc(C)cn2)nnc1[C@H]1CCCCO1 (single isomer, unassigned) [Example 86.0, (2S,3R)-N-(4-(2,6-dimethoxyphenyl)-5-((S)-tetrahydro-2H-pyran-2-yl)-4H-1,2,4-triazol-3-yl)-3-(5-methylpyrimidin-2-yl)butane-2-sulfonamide or (2S,3R)-N-(4-(2,6-dimethoxyphenyl)-5-((R)-tetrahydro-2H-pyran-2-yl)-4H-1,2,4-triazol-3-yl)-3-(5-methylpyrimidin-2-yl)butane-2-sulfonamide]
EC50: 2.1 nM

COc1cccc(OC)c1-n1c(NS(=O)(=O)[C@@H](C)[C@H](C)c2ncc(Cl)cn2)nnc1[C@H]1CCCCO1 (single isomer, unassigned) [Example 87.0, (2S,3R)-3-(5-chloropyrimidin-2-yl)-N-(4-(2,6-dimethoxyphenyl)-5-((S)-tetrahydro-2H-pyran-2-yl)-4H-1,2,4-triazol-3-yl)butane-2-sulfonamide or (2S,3R)-3-(5-chloropyrimidin-2-yl)-N-(4-(2,6-dimethoxyphenyl)-5-((S)-tetrahydro-2H-pyran-2-yl)-4H-1,2,4-triazol-3-yl)butane-2-sulfonamide]
EC50: 2.4 nM

COc1cccc(OC)c1-n1c(NS(=O)(=O)[C@@H](C)[C@H](C)c2ncc(Cl)cn2)nnc1[C@H]1CCCCO1 (single isomer, unassigned) [Example 88.0, (2S,3R)-3-(5-chloropyrimidin-2-yl)-N-(4-(2,6-dimethoxyphenyl)-5-((S)-tetrahydro-2H-pyran-2-yl)-4H-1,2,4-triazol-3-yl)butane-2-sulfonamide or (2S,3R)-3-(5-chloropyrimidin-2-yl)-N-(4-(2,6-dimethoxyphenyl)-5-((S)-tetrahydro-2H-pyran-2-yl)-4H-1,2,4-triazol-3-yl)butane-2-sulfonamide]
EC50: 0.42 nM

COc1cccc(OC)c1-n1c(NS(=O)(=O)[C@@H](C)[C@H](C)c2cnc(C)cn2)nnc1[C@H]1CCCO1 (single isomer, unassigned) [Example 89.0, (2S,3R)-N-(4-(2,6-dimethoxyphenyl)-5-((S)-tetrahydrofuran-2-yl)-4H-1,2,4-triazol-3-yl)-3-(5-methylpyrazin-2-yl)butane-2-sulfonamide or (2S,3R)-N-(4-(2,6-dimethoxyphenyl)-5-((R)-tetrahydrofuran-2-yl)-4H-1,2,4-triazol-3-yl)-3-(5-methylpyrazin-2-yl)butane-2-sulfonamide]
EC50: 23 nM

COc1cccc(OC)c1-n1c(NS(=O)(=O)[C@@H](C)[C@H](C)c2cnc(C)cn2)nnc1[C@H]1CCCO1 (single isomer, unassigned) [Example 90.0, (2S,3R)-N-(4-(2,6-dimethoxyphenyl)-5-((S)-tetrahydrofuran-2-yl)-4H-1,2,4-triazol-3-yl)-3-(5-methylpyrazin-2-yl)butane-2-sulfonamide or (2S,3R)-N-(4-(2,6-dimethoxyphenyl)-5-((R)-tetrahydrofuran-2-yl)-4H-1,2,4-triazol-3-yl)-3-(5-methylpyrazin-2-yl)butane-2-sulfonamide]
EC50: 370 nM

COc1ncnc(OC)c1-n1c(NS(=O)(=O)[C@@H](C)[C@H](OC)c2ncc(Cl)cn2)nnc1C1CCCOC1 (single isomer, unassigned) [Example 91.0, (1R,2S)-1-(5-chloropyrimidin-2-yl)-N-(4-(4,6-dimethoxypyrimidin-5-yl)-5-((S)-tetrahydro-2H-pyran-3-yl)-4H-1,2,4-triazol-3-yl)-1-methoxypropane-2-sulfonamide or (1R,2S)-1-(5-chloropyrimidin-2-yl)-N-(4-(4,6-dimethoxypyrimidin-5-yl)-5-((R)-tetrahydro-2H-pyran-3-yl)-4H-1,2,4-triazol-3-yl)-1-methoxypropane-2-sulfonamide]
EC50: 290 nM

COc1ncnc(OC)c1-n1c(NS(=O)(=O)[C@@H](C)[C@H](OC)c2ncc(Cl)cn2)nnc1[C@H]1CCCOC1 (single isomer, unassigned) [Example 92.0, (1R,2S)-1-(5-chloropyrimidin-2-yl)-N-(4-(4,6-dimethoxypyrimidin-5-yl)-5-((S)-tetrahydro-2H-pyran-3-yl)-4H-1,2,4-triazol-3-yl)-1-methoxypropane-2-sulfonamide or (1R,2S)-1-(5-chloropyrimidin-2-yl)-N-(4-(4,6-dimethoxypyrimidin-5-yl)-5-((R)-tetrahydro-2H-pyran-3-yl)-4H-1,2,4-triazol-3-yl)-1-methoxypropane-2-sulfonamide]
EC50: 42 nM

COc1ncnc(OC)c1-n1c(NS(=O)(=O)[C@@H](C)[C@H](C)c2ncc(Cl)cn2)nnc1[C@H]1CCOC1 (single isomer, unassigned) [Example 93.0, (2S,3R)-3-(5-chloropyrimidin-2-yl)-N-(4-(4,6-dimethoxypyrimidin-5-yl)-5-((R)-tetrahydrofuran-3-yl)-4H-1,2,4-triazol-3-yl)butane-2-sulfonamide or (2S,3R)-3-(5-chloropyrimidin-2-yl)-N-(4-(4,6-dimethoxypyrimidin-5-yl)-5-((S)-tetrahydrofuran-3-yl)-4H-1,2,4-triazol-3-yl)butane-2-sulfonamide]
EC50: 170 nM

COc1ncnc(OC)c1-n1c(NS(=O)(=O)[C@@H](C)[C@H](C)c2ncc(Cl)cn2)nnc1[C@H]1CCOC1 (single isomer, unassigned) [Example 94.0, (2S,3R)-3-(5-chloropyrimidin-2-yl)-N-(4-(4,6-dimethoxypyrimidin-5-yl)-5-((R)-tetrahydrofuran-3-yl)-4H-1,2,4-triazol-3-yl)butane-2-sulfonamide or (2S,3R)-3-(5-chloropyrimidin-2-yl)-N-(4-(4,6-dimethoxypyrimidin-5-yl)-5-((S)-tetrahydrofuran-3-yl)-4H-1,2,4-triazol-3-yl)butane-2-sulfonamide]
EC50: 190 nM

COc1ncnc(OC)c1-n1c(NS(=O)(=O)[C@@H](C)[C@@H](OC(C)C)c2ncc(C)cn2)nnc1[C@H]1CCCO1 (single isomer, unassigned) [Example 95.0, (1S,2S)-N-(4-(4,6-dimethoxypyrimidm-5-yl)-5-((S)-tetrahydrofuran-2-yl)-4H-1,2,4-triazol-3-yl)-1-isopropoxy-1-(5-methylpyrimidin-2-yl)propane-2-sulfonamide or (1S,2S)-N-(4-(4,6-dimethoxypyrimidin-5-yl)-5-((R)-tetrahydrofuran-2-yl)-4H-1,2,4-triazol-3-yl)-1-isopropoxy-1-(5-methylpyrimidin-2-yl)propane-2-sulfonamide]
EC50: 15 nM

COc1ncnc(OC)c1-n1c(NS(=O)(=O)[C@@H](C)[C@@H](OC(C)C)c2ncc(C)cn2)nnc1[C@H]1CCCO1 (single isomer, unassigned) [Example 96.0, (1S,2S)-N-(4-(4,6-dimethoxypyrimidm-5-yl)-5-((S)-tetrahydrofuran-2-yl)-4H-1,2,4-triazol-3-yl)-1-isopropoxy-1-(5-methylpyrimidin-2-yl)propane-2-sulfonamide or (1S,2S)-N-(4-(4,6-dimethoxypyrimidin-5-yl)-5-((R)-tetrahydrofuran-2-yl)-4H-1,2,4-triazol-3-yl)-1-isopropoxy-1-(5-methylpyrimidin-2-yl)propane-2-sulfonamide]
EC50: 190 nM

COc1cccc(OC)c1-n1c(NS(=O)(=O)[C@@H](C)[C@@H](OC(C)C)c2ncc(C)cn2)nnc1[C@H]1CCCO1 (single isomer, unassigned) [Example 98.0, (1S,2S)-N-(4-(2,6-dimethoxyphenyl)-5-((S)-tetrahydrofuran-2-yl)-4H-1,2,4-triazol-3-yl)-1-isopropoxy-1-(5-methylpyrimidin-2-yl)propane-2-sulfonamide or (1S,2S)-N-(4-(2,6-dimethoxyphenyl)-5-((R)-tetrahydrofuran-2-yl)-4H-1,2,4-triazol-3-yl)-1-isopropoxy-1-(5-methylpyrimidin-2-yl)propane-2-sulfonamide]
EC50: 0.78 nM

COc1cccc(OC)c1-n1c(NS(=O)(=O)[C@@H](C)[C@@H](OC(C)C)c2ncc(C)cn2)nnc1[C@H]1CCOC1 (single isomer, unassigned) [Example 99.0, (1S,2S)-N-(4-(2,6-dimethoxyphenyl)-5-((R)-tetrahydrofuran-3-yl)-4H-1,2,4-triazol-3-yl)-1-isopropoxy-1-(5-methylpyrimidin-2-yl)propane-2-sulfonamide or (1S,2S)-N-(4-(2,6-dimethoxyphenyl)-5-((S)-tetrahydrofuran-3-yl)-4H-1,2,4-triazol-3-yl)-1-isopropoxy-1-(5-methylpyrimidin-2-yl)propane-2-sulfonamide]
EC50: 2.5 nM
